How the values were obtained:
[1] = molecular target: T1, NR1aNR2B NMDA receptor (NR2B subunit) (Rattus norvegicus, UniProt P35439+Q00960); assay: whole-cell patch clamp, agonist concentration-response; format: cell-based
[2] = molecular target: T2, NR1aNR2A NMDA receptor (NR2A subunit) (Rattus norvegicus, UniProt P35439+Q00959); assay: as above; format: cell-based
[3] = molecular target: T2, NR1aNR2A NMDA receptor (NR2A subunit); assay: whole-cell patch clamp, inhibition of EC30 NMDA current; format: cell-based; details: read-out: % inhibition at 100 μM
[4] = molecular target: T1, NR1aNR2B NMDA receptor (NR2B subunit); assay: as above; format: cell-based; details: read-out: % inhibition at 100 μM
[5] = system: NMDA receptor (native, hippocampal neurons); format: cell-based, Mus musculus

T1 sequence (Q00960 27-1482, other chains not shown): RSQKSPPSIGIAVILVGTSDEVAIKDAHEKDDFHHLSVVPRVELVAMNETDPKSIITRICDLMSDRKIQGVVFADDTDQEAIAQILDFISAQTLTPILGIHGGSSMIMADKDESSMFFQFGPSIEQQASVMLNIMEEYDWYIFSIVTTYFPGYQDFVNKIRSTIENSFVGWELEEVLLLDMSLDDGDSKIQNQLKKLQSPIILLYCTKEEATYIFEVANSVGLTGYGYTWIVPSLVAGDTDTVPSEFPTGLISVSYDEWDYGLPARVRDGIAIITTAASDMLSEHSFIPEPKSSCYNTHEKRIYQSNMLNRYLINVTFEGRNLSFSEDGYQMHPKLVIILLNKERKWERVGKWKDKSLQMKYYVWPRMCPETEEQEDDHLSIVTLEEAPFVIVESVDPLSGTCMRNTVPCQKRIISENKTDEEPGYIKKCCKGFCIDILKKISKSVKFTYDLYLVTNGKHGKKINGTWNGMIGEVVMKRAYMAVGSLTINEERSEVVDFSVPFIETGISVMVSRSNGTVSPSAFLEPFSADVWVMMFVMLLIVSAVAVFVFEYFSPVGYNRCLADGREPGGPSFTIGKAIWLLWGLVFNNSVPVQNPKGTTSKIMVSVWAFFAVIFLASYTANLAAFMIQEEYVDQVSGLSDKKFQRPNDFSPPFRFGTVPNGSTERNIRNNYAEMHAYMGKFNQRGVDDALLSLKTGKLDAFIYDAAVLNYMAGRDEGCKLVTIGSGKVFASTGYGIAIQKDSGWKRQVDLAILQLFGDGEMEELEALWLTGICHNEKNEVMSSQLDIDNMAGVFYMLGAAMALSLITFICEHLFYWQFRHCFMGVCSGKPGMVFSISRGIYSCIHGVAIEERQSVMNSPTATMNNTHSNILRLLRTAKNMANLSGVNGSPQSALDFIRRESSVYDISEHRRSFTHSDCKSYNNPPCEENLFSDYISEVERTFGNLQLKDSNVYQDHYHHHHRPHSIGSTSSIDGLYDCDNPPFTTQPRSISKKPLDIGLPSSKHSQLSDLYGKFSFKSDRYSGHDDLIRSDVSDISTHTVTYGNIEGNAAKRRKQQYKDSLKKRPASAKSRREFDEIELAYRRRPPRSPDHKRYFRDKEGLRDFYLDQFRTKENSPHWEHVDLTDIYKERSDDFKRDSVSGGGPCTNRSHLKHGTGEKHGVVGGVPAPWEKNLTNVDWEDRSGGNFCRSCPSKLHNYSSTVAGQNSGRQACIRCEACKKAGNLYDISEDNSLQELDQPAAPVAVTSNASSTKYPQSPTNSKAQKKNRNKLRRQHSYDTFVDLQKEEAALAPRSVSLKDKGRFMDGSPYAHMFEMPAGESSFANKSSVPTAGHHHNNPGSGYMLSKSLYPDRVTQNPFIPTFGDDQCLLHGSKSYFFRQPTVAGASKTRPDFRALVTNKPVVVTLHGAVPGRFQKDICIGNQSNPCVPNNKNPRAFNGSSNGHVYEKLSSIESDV
T2 sequence (Q00959 23-1464, other chains not shown): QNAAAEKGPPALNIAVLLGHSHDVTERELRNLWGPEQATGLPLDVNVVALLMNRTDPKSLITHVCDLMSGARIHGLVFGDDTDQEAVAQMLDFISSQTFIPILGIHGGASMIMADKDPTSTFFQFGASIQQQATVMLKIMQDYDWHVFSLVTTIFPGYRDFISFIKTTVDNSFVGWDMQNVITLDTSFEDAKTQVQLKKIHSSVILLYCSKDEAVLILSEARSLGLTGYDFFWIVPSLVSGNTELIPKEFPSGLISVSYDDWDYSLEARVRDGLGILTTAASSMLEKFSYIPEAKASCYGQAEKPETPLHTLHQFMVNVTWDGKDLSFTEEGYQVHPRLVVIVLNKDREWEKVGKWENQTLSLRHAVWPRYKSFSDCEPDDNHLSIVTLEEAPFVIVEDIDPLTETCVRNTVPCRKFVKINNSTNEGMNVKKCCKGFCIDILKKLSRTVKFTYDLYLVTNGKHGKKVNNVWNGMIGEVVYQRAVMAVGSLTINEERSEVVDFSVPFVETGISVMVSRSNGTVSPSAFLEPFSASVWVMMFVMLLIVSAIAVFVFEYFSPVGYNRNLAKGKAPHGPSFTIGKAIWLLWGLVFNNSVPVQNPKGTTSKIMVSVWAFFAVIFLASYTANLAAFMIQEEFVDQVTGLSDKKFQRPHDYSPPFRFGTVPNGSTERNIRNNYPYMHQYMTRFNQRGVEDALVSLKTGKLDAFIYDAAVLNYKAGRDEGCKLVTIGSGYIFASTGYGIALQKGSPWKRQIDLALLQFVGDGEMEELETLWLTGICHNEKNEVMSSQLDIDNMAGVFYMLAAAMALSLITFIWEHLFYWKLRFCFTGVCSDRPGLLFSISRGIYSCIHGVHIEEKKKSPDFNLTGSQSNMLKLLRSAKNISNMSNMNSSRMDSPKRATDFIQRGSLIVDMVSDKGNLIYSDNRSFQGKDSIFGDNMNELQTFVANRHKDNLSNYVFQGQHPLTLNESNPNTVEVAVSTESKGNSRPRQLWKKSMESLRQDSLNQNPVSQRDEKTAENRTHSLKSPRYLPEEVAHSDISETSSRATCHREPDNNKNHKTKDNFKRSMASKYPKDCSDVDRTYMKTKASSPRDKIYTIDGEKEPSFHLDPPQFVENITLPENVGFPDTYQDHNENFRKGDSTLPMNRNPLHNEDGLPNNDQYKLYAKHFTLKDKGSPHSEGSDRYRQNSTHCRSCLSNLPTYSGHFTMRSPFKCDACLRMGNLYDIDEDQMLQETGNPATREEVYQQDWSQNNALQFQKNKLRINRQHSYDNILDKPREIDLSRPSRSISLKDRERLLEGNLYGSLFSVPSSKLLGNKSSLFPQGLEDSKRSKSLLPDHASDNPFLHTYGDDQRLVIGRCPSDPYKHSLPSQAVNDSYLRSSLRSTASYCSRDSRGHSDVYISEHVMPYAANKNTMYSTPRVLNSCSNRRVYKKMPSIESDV

CN[C@H](CC(=O)O)C(=O)O [NMDA]
EC50 [1]: 14 ± 1.3 µM | EC50 [2]: 44 ± 5.6 µM

O=c1c(-c2ccc(O)cc2)coc2cc(O)cc(O)c12 [genistein]
inhibition at 100 µM [3]: 20 ± 1.4% | inhibition at 100 µM [4]: 26 ± 2%

O=c1c(-c2ccc(O)cc2)coc2cc(O)ccc12 [daidzein, 4′,7-dihydroxyisoflavone]
% of control current at 100 μM [5]: 68 ± 1.6
